Test results published in publication PMC9394549 (Nature, 2022).

Target: T1, GAT2 (Homo sapiens, UniProt Q9NSD5)
T1 sequence (Q9NSD5 1-602): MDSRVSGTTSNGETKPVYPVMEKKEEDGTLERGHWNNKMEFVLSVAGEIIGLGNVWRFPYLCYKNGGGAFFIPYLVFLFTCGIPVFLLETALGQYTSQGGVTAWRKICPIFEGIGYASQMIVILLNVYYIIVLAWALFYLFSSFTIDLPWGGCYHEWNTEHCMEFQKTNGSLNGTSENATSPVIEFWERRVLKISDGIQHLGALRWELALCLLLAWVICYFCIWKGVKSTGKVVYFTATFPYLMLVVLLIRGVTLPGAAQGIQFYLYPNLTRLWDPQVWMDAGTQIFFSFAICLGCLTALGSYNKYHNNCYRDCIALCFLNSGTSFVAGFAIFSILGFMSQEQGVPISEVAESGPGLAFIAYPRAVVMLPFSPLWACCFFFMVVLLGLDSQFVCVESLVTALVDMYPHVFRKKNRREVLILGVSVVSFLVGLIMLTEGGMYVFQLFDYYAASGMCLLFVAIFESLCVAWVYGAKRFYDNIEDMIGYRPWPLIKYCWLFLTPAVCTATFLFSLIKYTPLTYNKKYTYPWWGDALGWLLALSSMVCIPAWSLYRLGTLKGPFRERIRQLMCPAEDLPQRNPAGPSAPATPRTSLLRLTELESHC
Test: [3H]-GABA uptake in transfected HEK293S GnTI− cells
Format: cell-based

NCCCC(=O)O [GABA]
[3H]-GABA uptake in transfected HEK293S GnTI- cells: Specific uptake of [^3H]-GABA in HEK293S cells expressing wild-type GAT1, wild-type GAT2
